In PubChem BioAssay AID1053166 (Broad Institute, 2014):

Test system: Vaccinia-infected cells, mCherry/Venus stage reporter fluorescence
Assay: inhibition of vaccinia stage-reporter fluorescence – cell-based, dry powder, dose response (AID 1053166)

**Q.** How did the AC50 turn out when C[C@@H](O)C#Cc1ccc2c(c1)O[C@@H](CN(C)Cc1ccc(-c3ccccc3Cl)cc1)[C@@H](C)CN([C@@H](C)CO)S2(=O)=O was run?
**A.** The AC50 was 992 nM.

**Q.** Cc1ccccc1-c1ccc(CN(C)C[C@@H]2Oc3cc(C#C[C@@H](C)O)ccc3S(=O)(=O)N([C@@H](C)CO)C[C@@H]2C)cc1 was tested. Which AC50 did it give?
**A.** The AC50 was 1150 nM.

**Q.** How did the AC50 turn out when Cc1ccc(-c2ccc(CN(C)C[C@@H]3Oc4cc(C#C[C@@H](C)O)ccc4S(=O)(=O)N([C@@H](C)CO)C[C@@H]3C)cc2)cc1 was run?
**A.** The AC50 was 1790 nM.

**Q.** Cc1cccc(-c2ccc(CN(C)C[C@@H]3Oc4cc(C#C[C@@H](C)O)ccc4S(=O)(=O)N([C@@H](C)CO)C[C@@H]3C)cc2)c1 was tested. Which AC50 did it give?
**A.** Its AC50 is 2370 nM.
